According to patent US8247211B2, “Glycopeptide antibiotics” (American Cyanamid Company, priority 2001, dated 2012):
Converted amounts (≈) assume the structure as drawn.

Key:
Assay in all cases: In vitro antibacterial evaluation: minimum inhibitory concentration (MIC), broth dilution method
Format in all cases: cell-based
Staphylococcus sp. = conditions: broth dilution, 18 hours at 35° C.
Description: (§1) The minimum inhibitory concentration (MIC), the lowest concentration of the antibiotic which inhibits growth of the test organism, is determined by the broth dilution method using Muller-Hinton II […] (Baltimore Biological Laboratories) following the recommendations of the National Committee for Clinical Laboratory Standards [Methods for dilution antimicrobial susceptibility tests for bacteria that grow aerobically, approved standard M7-A2, National Committee for Clinical Laboratory Standards, Villanova, Pa].
(§2) An inoculum level of 5×10^5 CFU/mL, and a range of antibiotic concentrations (64-0.06 μg/mL) is used. […] The test organisms include a spectrum of Gram-positive bacteria comprised of Staphylococcus sp., Streptococcus sp. and Enterococcus sp. These organisms include recent clinical isolates that are resistant to methicillin, penicillin and/or vancomycin.

Escherichia coli = tested on: Escherichia coli
Description: as §1, §2

Streptococcus sp. = tested on: Streptococcus sp.
Description: as §1, §2

Enterococcus sp. = tested on: Enterococcus sp.
Description: as §1, §2

CCCc1ccc(C2OCC3OC(OC4C(CO)OC(Oc5ccc(CC6NC(=O)C(C(C)c7ccccc7)NC(=O)CNC(=O)C(CO)NC(=O)C(C(O)C7CNC(=N)N7C7OC(CO)C(O)C(O)C7O)NC(=O)C(C(O)C7CNC(=N)N7)NC6=O)cc5)C(O)C4O)C(O)C(O)C3O2)cc1 (stereo not drawn) [Example 140, Cyclo[glycyl-β-methylphenylalanyl-O-[4-O-[4,6-O-(4-propylbenzylidene)hexopyranosyl]-hexopyranosyl]tyrosyl-3-(2-iminoimidazolidin-4-yl)seryl-3-(3-hexopyranosyl-2-iminoimidazolidin-4-yl)serylseryl]]
MIC Coagulase Negative Staphylococcus (GC 4547) (Staphylococcus sp.; 5×10^5 CFU/mL): <0.5 µg/mL
MIC Coagulase Negative Staphylococcus (GC 4548) (Staphylococcus sp.; 5×10^5 CFU/mL): <0.5 µg/mL
MIC Coagulase Negative Staphylococcus (GC 4549) (Staphylococcus sp.; 5×10^5 CFU/mL): <0.5 µg/mL
MIC Coagulase Negative Staphylococcus (GC 4551) (Staphylococcus sp.; 5×10^5 CFU/mL): <0.5 µg/mL
MIC Coagulase Negative Staphylococcus (GC 6257) (Staphylococcus sp.; 5×10^5 CFU/mL): <0.5 µg/mL
MIC Staphylococcus aureus (ATCC 29213) (Staphylococcus sp.; 5×10^5 CFU/mL): 1 µg/mL (≈ 0.702 µM)
MIC Staphylococcus aureus (GC 1131) (Staphylococcus sp.; 5×10^5 CFU/mL): 1 µg/mL (≈ 0.702 µM)
MIC Staphylococcus aureus (GC 3051) (Staphylococcus sp.; 5×10^5 CFU/mL): 1 µg/mL (≈ 0.702 µM)
MIC Staphylococcus aureus (GC 3053) (Staphylococcus sp.; 5×10^5 CFU/mL): <0.5 µg/mL
MIC Staphylococcus aureus (GC 4541) (Staphylococcus sp.; 5×10^5 CFU/mL): 1 µg/mL (≈ 0.702 µM)
MIC Staphylococcus aureus (GC 4542) (Staphylococcus sp.; 5×10^5 CFU/mL): 1 µg/mL (≈ 0.702 µM)
MIC Staphylococcus aureus (GC 4544) (Staphylococcus sp.; 5×10^5 CFU/mL): 1 µg/mL (≈ 0.702 µM)
MIC Staphylococcus aureus (GC 4545) (Staphylococcus sp.; 5×10^5 CFU/mL): <0.5 µg/mL
MIC Staphylococcus aureus-SMITH (GC 4543) (Staphylococcus sp.; 5×10^5 CFU/mL): 1 µg/mL (≈ 0.702 µM)
MIC Staphylococcus haemolyticus (GC 4546) (Staphylococcus sp.; 5×10^5 CFU/mL): 1 µg/mL (≈ 0.702 µM)
MIC Staphylococcus aureus (ATCC 29213) (Staphylococcus sp.; strain ATCC 29213): 1 µg/mL (≈ 0.702 µM)
MIC Staphylococcus aureus (GC 1131) (Staphylococcus sp.; strain GC 1131): 1 µg/mL (≈ 0.702 µM)
MIC Staphylococcus aureus (GC 3051) (Staphylococcus sp.; strain GC 3051): 1 µg/mL (≈ 0.702 µM)
MIC Staphylococcus aureus (GC 3053) (Staphylococcus sp.; strain GC 3053): <0.5 µg/mL
MIC Staphylococcus aureus (GC 4541) (Staphylococcus sp.; strain GC 4541): 1 µg/mL (≈ 0.702 µM)
MIC Staphylococcus aureus (GC 4542) (Staphylococcus sp.; strain GC 4542): 1 µg/mL (≈ 0.702 µM)
MIC Staphylococcus aureus-SMITH (GC 4543) (Staphylococcus sp.; strain GC 4543): 1 µg/mL (≈ 0.702 µM)
MIC Staphylococcus aureus (GC 4544) (Staphylococcus sp.; strain GC 4544): 1 µg/mL (≈ 0.702 µM)
MIC Staphylococcus aureus (GC 4545) (Staphylococcus sp.; strain GC 4545): <0.5 µg/mL
MIC Staphylococcus haemolyticus (GC 4546) (Staphylococcus sp.; strain GC 4546): 1 µg/mL (≈ 0.702 µM)
MIC Coagulase Negative Staphylococcus (GC 4547) (Staphylococcus sp.; strain GC 4547): <0.5 µg/mL
MIC Coagulase Negative Staphylococcus (GC 4548) (Staphylococcus sp.; strain GC 4548): <0.5 µg/mL
MIC Coagulase Negative Staphylococcus (GC 4549) (Staphylococcus sp.; strain GC 4549): <0.5 µg/mL
MIC Coagulase Negative Staphylococcus (GC 4551) (Staphylococcus sp.; strain GC 4551): <0.5 µg/mL
MIC Coagulase Negative Staphylococcus (GC 6257) (Staphylococcus sp.; strain GC 6257): <0.5 µg/mL
MIC Escherichia coli (ATCC 25922) (Escherichia coli; strain ATCC 25922): 64 µg/mL (≈ 44.9 µM)
MIC Escherichia coli (GC 4559) (Escherichia coli; strain GC 4559): 64 µg/mL (≈ 44.9 µM)
MIC Escherichi coli (GC 4560) (Escherichia coli; strain GC 4560): 1 µg/mL (≈ 0.702 µM)
MIC Streptococcus pneumoniae (ATCC 6301) (Streptococcus sp.; strain ATCC 6301): <0.5 µg/mL
MIC Streptococcus pneumoniae (GC 1894) (Streptococcus sp.; strain GC 1894): <0.5 µg/mL
MIC Streptococcus pyogenes (GC 4563) (Streptococcus sp.; strain GC 4563): <0.5 µg/mL
MIC Streptococcus agalactiae (GC 4564) (Streptococcus sp.; strain GC 4564): <0.5 µg/mL
MIC Streptococcus pneumoniae (GC 4565) (Streptococcus sp.; strain GC 4565): <0.5 µg/mL
MIC Enterococcus faecalis (ATCC 29212) (Enterococcus sp.; strain ATCC 29212): <0.5 µg/mL
MIC Enterococcus faecalis (GC 2242) (Enterococcus sp.; strain GC 2242): <1 µg/mL
MIC Enterococcus faecium (GC 2243) (Enterococcus sp.; strain GC 2243): 1 µg/mL (≈ 0.702 µM)
MIC Enterococcus faecalis (GC 2691) (Enterococcus sp.; strain GC 2691): 1 µg/mL (≈ 0.702 µM)
MIC Enterococcus faecalis (GC 3059) (Enterococcus sp.; strain GC 3059): 1 µg/mL (≈ 0.702 µM)
MIC Enterococcus faecalis (GC 4552) (Enterococcus sp.; strain GC 4552): 1 µg/mL (≈ 0.702 µM)
MIC Enterococcus faecalis (GC 4553) (Enterococcus sp.; strain GC 4553): 1 µg/mL (≈ 0.702 µM)
MIC Enterococcus faecalis (GC 4554) (Enterococcus sp.; strain GC 4554): 1 µg/mL (≈ 0.702 µM)
MIC Enterococcus faecium (GC 4556) (Enterococcus sp.; strain GC 4556): 1 µg/mL (≈ 0.702 µM)
MIC Enterococcus faecium (GC 4557) (Enterococcus sp.; strain GC 4557): 1 µg/mL (≈ 0.702 µM)
MIC Enterococcus avium (GC 4558) (Enterococcus sp.; strain GC 4558): 1 µg/mL (≈ 0.702 µM)
MIC Enterococcus faecalis (GC 6189) (Enterococcus sp.; strain GC 6189): 1 µg/mL (≈ 0.702 µM)
